# Reference: US10898548B2, “Modulators of protein tyrosine phosphatase and uses thereof” (LEUVAS THERAPEUTICS, priority 2015, dated 2021)
# What was measured:
# JAK2 (pYpY1007/1008) = assay: p-JAK2 ELISA on monocytes; type: cell-based, human; settings: 1 hour, 50 nM fMLP 90 sec, CTRL 100
# Text: JAK2 regulation by PTPRG as assessed through the high-throughput phospho-proteomics analysis evidenced that PTPRG activation (Example 4, Table 9 and 10) provides a useful example of the exploitation of this analysis system for identification of targets and unexpected indications/uses for known and novel agents that regulate the phoshoproteome. […] Furthermore, the capability of fMLP to trigger JAKs activation has never been observed. The results described in Example 4 unexpectedly implicate JAK2 de-phosphorylation by PTPRG as playing a role in the anti-adhesive role of PTPRG on monocytes. To test this system-generated hypothesis we first set out to define the role of JAK2 in fMLP-triggered rapid adhesion in monocytes. Time course experiments, either performed with ELISA assay or Western Blot. Briefly, purified human monocytes were treated with buffer (resting) or with 50 nM fMLP for the indicated times (Table 12), and the phosphorylation was assessed by p-Jak2 elisa and Western Blot analysis. The JAK2 activation was determined with Elisa Kit JAK2 (pYpY1007/1008) (Invitrogen). Briefly, cells were stimulated with agonist and lysed following manufacturer's protocol; levels of phospho-JAK2 were quantified (absorbance at 450 nm) with a micro-well plate reader (Victor™ X5 Multilabel Plate Reader, Perkin Elmer). For Western blot analysis, cells were lysed in ice-cold 1% Nonidet P-40 buffer, containing phosphatase inhibitors and complete protease inhibitor cocktail (Roche). Total cell lysates were quantified by Bradford assay (Bio-Rad). Equal amounts of total lysates or of isolated membranes (as described in Example 1) were subjected to 10% SDS-PAGE and then blotted. After incubation with anti-PTPRG, anti gp91^Phox, anti phospho-JAK2, anti JAK2 and HRP-linked secondary antibodies (GE Healthcare), immunoreactive bands were visualized by ECL detection (EMD Millipore). Intensities of band signals were quantified by densitometric analysis (Quantity One, Bio-Rad) by using ImageQuant Las4000. Data are mean value of three experiments; the relative ratio of the band intensity of phosphor-JAK2 was normalized to the level of JAK2 band intensities.
# Briefly, p-JAK2 ELISA assay on human monocytes treated with buffer (CTRL=control), 50 μM P1-WD, P1 or P1-WD scrambled peptides (Table 17), or with buffer (CTRL=control), 0.5 uM TAT-ICD or 50 μM TAT peptide (Table 18) for 1 hour at 37° C. and stimulated with 50 nM fMLP for 90 sec. Shown are percentages of fold increases over the control; mean values of 3 experiments in triplicate.
# U251 GBM cells [1] = assay: MTT survival assay, U251 GBM cells; type: cell-based
# Procedure: (§1) Briefly, U251 GBM cells, normal primary cortical murine neurons and a mixed culture of murine microglia and astrocytes were treated for 24, 48 and 72 hours with no treatment (control), delivery peptide (P1 or TAT) or increasing concentrations of P1-WD or TAT-ICD. Cell viability and survival was measured using the MTT assay, a colorimetric assay for assessing cell metabolic activity set up under conditions where the absorption reflects the number of viable cells present (Table 21 and 22) and expressed as relative absorption at 570 nm. Early apoptosis was measured using VYBRANT DyeCycle Violet stain (Molecular Probes), a DNA-selective, cell membrane-permeant dye that can distinguish the compacted state of the nuclear chromatin in apoptotic cells as determined by flow cytometry and presented as the percent of cells that are apoptotic (Table 23 and 24). The actual number of cells following treatment with TAT-ICD or TAT alone (Table 25) was determined using flow cytometry compared to an input of 5,000 cells at time zero. To confirm apoptosis the TUNEL labeling assay, which detects DNA strand breaks in apoptotic cells by fluorescence microscopy, was also used to examine U251 cells treated with the PTPRG WD. Briefly, the assay used an optimized terminal transferase ([…]) to label 3′OH ends in genomic DNA with TMR-dUTP, thus allowing the measurement and quantification of cell death by apoptosis. U251 cells were pretreated for 1, 3 and 6 hours with 50 μM P1-WD. Then cells were fixed and permeabilized, incubated with TUNEL reaction mixture for 1 h at RT, and then stained with DAPI (for nuclei detection) and with Alexa670-Phalloidin (to detect actin in cell membranes). After the staining steps, cells were visualized with a confocal microscope.
# U251 GBM cells [2] = assay: VYBRANT DyeCycle Violet early apoptosis, U251 GBM cells; type: cell-based
# Procedure: as §1, with “Cell” for “Briefly, U251 GBM cells, normal primary cortical murine neurons and a mixed culture of murine microglia and astrocytes were treated for 24, 48 and 72 hours with no treatment (control), delivery peptide (P1 or TAT) or increasing concentrations of P1-WD or TAT-ICD. Cell”
# U251 cells = assay: TUNEL labeling assay, U251 cells; type: cell-based; settings: 50 μM P1-WD
# Procedure: as §1
# This finding was validated using the TUNEL in situ apoptosis cell death detection staining.
# [3] = 50 μM P1-WD, P1 or P1-WD scrambled
# [4] = P1 or P1-WD 50 uM, 24 hours, control 821
# [5] = P1 or P1-WD 50 uM, 48 hours, control 1943
# [6] = P1 or P1-WD 50 uM, 72 hours, control 2556
# [7] = P1 or P1-WD 50 μM, 6 h, Control 5
# [8] = P1 or P1-WD 50 μM, 9 h, Control 12
# [9] = P1 or P1-WD 50 μM, 24 h, Control 8
# [10] = 0.5 uM TAT-ICD or 50 μM TAT peptide
substance,measurement,setting,value
"P1-WD: fusion Trojan peptide SEQ ID 3: Penetratin, glycine, PTPRG wedge domain aa 831-856; RQIKIWFQNRRMKWKKGKQFVKHIGELYSNNQHGFSEDFEEVQ (listed as Homo sapiens)","p-JAK2 ELISA, percentages of fold increases over the control",JAK2 (pYpY1007/1008); [3],51%
same,MTT relative absorption at 570 nM,"U251 GBM cells [1]; P1-WD 10 uM, 24 hours, control 821",656
same,MTT relative absorption at 570 nM,"U251 GBM cells [1]; P1-WD 10 uM, 48 hours, control 1943",1400
same,MTT relative absorption at 570 nM,"U251 GBM cells [1]; P1-WD 10 uM, 72 hours, control 2556",1593
same,MTT relative absorption at 570 nM,"U251 GBM cells [1]; P1-WD 25 uM, 24 hours, control 821",469
same,MTT relative absorption at 570 nM,"U251 GBM cells [1]; P1-WD 25 uM, 48 hours, control 1943",820
same,MTT relative absorption at 570 nM,"U251 GBM cells [1]; P1-WD 25 uM, 72 hours, control 2556",1281
same,MTT relative absorption at 570 nM,U251 GBM cells [1]; [4],411
same,MTT relative absorption at 570 nM,U251 GBM cells [1]; [5],733
same,MTT relative absorption at 570 nM,U251 GBM cells [1]; [6],1060
same,percent of apoptotic cells (early apoptosis),"U251 GBM cells [2]; P1-WD 10 μM, 6 h, Control 5",13%
same,percent of apoptotic cells (early apoptosis),"U251 GBM cells [2]; P1-WD 10 μM, 9 h, Control 12",21%
same,percent of apoptotic cells (early apoptosis),"U251 GBM cells [2]; P1-WD 10 μM, 24 h, Control 8",25%
same,percent of apoptotic cells (early apoptosis),"U251 GBM cells [2]; P1-WD 25 μM, 6 h, Control 5",21%
same,percent of apoptotic cells (early apoptosis),"U251 GBM cells [2]; P1-WD 25 μM, 9 h, Control 12",30%
same,percent of apoptotic cells (early apoptosis),"U251 GBM cells [2]; P1-WD 25 μM, 24 h, Control 8",30%
same,percent of apoptotic cells (early apoptosis),U251 GBM cells [2]; [7],33%
same,percent of apoptotic cells (early apoptosis),U251 GBM cells [2]; [8],40%
same,percent of apoptotic cells (early apoptosis),U251 GBM cells [2]; [9],40%
same,"DNA fragmentation, TUNEL staining",U251 cells,fragmented DNA as early as 3 hours after initiation of treatment
"P1: Penetratin delivery peptide, 16 aa RQIKIWFQNRRMKWKK (SEQ ID 4), control [reference compound]","p-JAK2 ELISA, percentages of fold increases over the control",JAK2 (pYpY1007/1008); [3],95%
same,MTT relative absorption at 570 nM,U251 GBM cells [1]; [4],600
same,MTT relative absorption at 570 nM,U251 GBM cells [1]; [5],1743
same,MTT relative absorption at 570 nM,U251 GBM cells [1]; [6],2294
same,percent of apoptotic cells (early apoptosis),U251 GBM cells [2]; [7],8%
same,percent of apoptotic cells (early apoptosis),U251 GBM cells [2]; [8],15%
same,percent of apoptotic cells (early apoptosis),U251 GBM cells [2]; [9],15%
same,"DNA fragmentation, TUNEL staining",U251 cells,did not show fragmented DNA or cell loss
TAT (GRKKRRQRRRPPQ; listed as Homo sapiens) [reference compound],"p-JAK2 ELISA, percentages of fold increases over the control",JAK2 (pYpY1007/1008); [10],99%
same,MTT relative absorption at 570 nM,"U251 GBM cells [1]; TAT 50 uM, 24 hrs, Control 821",825
same,MTT relative absorption at 570 nM,"U251 GBM cells [1]; TAT 50 uM, 48 hrs, Control 1943",1654
same,MTT relative absorption at 570 nM,"U251 GBM cells [1]; TAT 50 uM, 72 hrs, Control 2556",2068
same,percent of apoptotic cells (early apoptosis),"U251 GBM cells [2]; TAT 50 uM, 6 hr, CTRL 4.6",10.0%
same,percent of apoptotic cells (early apoptosis),"U251 GBM cells [2]; TAT 50 uM, 9 hr, CTRL 6.0",11.0%
same,percent of apoptotic cells (early apoptosis),"U251 GBM cells [2]; TAT 50 uM, 24 hr, CTRL 7.0",8.0%
same,"DNA fragmentation, TUNEL staining",U251 cells,did not show fragmented DNA or cell loss
TAT-ICD: fusion recombinant protein SEQ ID 5: PTPRG intracellular domain aa 797-1445 fused to 13 aa TAT sequence,"p-JAK2 ELISA, percentages of fold increases over the control",JAK2 (pYpY1007/1008); [10],53%
same,MTT relative absorption at 570 nM,"U251 GBM cells [1]; TAT-ICD 0.5 uM, 24 hrs, Control 821",568
same,MTT relative absorption at 570 nM,"U251 GBM cells [1]; TAT-ICD 0.5 uM, 48 hrs, Control 1943",969
same,MTT relative absorption at 570 nM,"U251 GBM cells [1]; TAT-ICD 0.5 uM, 72 hrs, Control 2556",1630
same,MTT relative absorption at 570 nM,"U251 GBM cells [1]; TAT-ICD 1.0 uM, 24 hrs, Control 821",353
same,MTT relative absorption at 570 nM,"U251 GBM cells [1]; TAT-ICD 1.0 uM, 48 hrs, Control 1943",526
same,MTT relative absorption at 570 nM,"U251 GBM cells [1]; TAT-ICD 1.0 uM, 72 hrs, Control 2556",830
same,MTT relative absorption at 570 nM,"U251 GBM cells [1]; TAT-ICD 2.0 uM, 24 hrs, Control 821",244
same,MTT relative absorption at 570 nM,"U251 GBM cells [1]; TAT-ICD 2.0 uM, 48 hrs, Control 1943",236
same,MTT relative absorption at 570 nM,"U251 GBM cells [1]; TAT-ICD 2.0 uM, 72 hrs, Control 2556",279
same,percent of apoptotic cells (early apoptosis),"U251 GBM cells [2]; TAT-ICD 0.5 uM, 6 hr, CTRL 4.6",2.6%
same,percent of apoptotic cells (early apoptosis),"U251 GBM cells [2]; TAT-ICD 0.5 uM, 9 hr, CTRL 6.0",14.0%
same,percent of apoptotic cells (early apoptosis),"U251 GBM cells [2]; TAT-ICD 0.5 uM, 24 hr, CTRL 7.0",21.0%
same,percent of apoptotic cells (early apoptosis),"U251 GBM cells [2]; TAT-ICD 1 uM, 6 hr, CTRL 4.6",6.0%
same,percent of apoptotic cells (early apoptosis),"U251 GBM cells [2]; TAT-ICD 1 uM, 9 hr, CTRL 6.0",17.0%
same,percent of apoptotic cells (early apoptosis),"U251 GBM cells [2]; TAT-ICD 1 uM, 24 hr, CTRL 7.0",25.0%
same,percent of apoptotic cells (early apoptosis),"U251 GBM cells [2]; TAT-ICD 2 uM, 6 hr, CTRL 4.6",15.0%
same,percent of apoptotic cells (early apoptosis),"U251 GBM cells [2]; TAT-ICD 2 uM, 9 hr, CTRL 6.0",25.0%
same,percent of apoptotic cells (early apoptosis),"U251 GBM cells [2]; TAT-ICD 2 uM, 24 hr, CTRL 7.0",30.0%
